Key:
in vitro = in vitro ADME; conditions: conversion of profenofos to BCP; for Km: pH 7.4
Experimental: Incubations of profenofos with rat and human liver microsomes, liver cytosol and plasma were performed to quantify in vitro rates of BCP formation. Conditions were optimized to be linear for metabolite formation with regard to incubation time and microsomal, cytosolic and plasma protein concentration (data not shown). The final incubations were carried out in 100 mM Tris HCl (pH 7.4, 37 °C) containing (final concentrations) 5 mM MgCl2, 2 mM CaCl2 [to stimulate PON1 activity (Carr et al. [2015])], 2 mM NADPH (cofactor to also include CYP-mediated metabolism), enzyme preparation (final concentration 2 mg/ml for human liver microsomes and cytosol and 4.4 mg/ml for human plasma; 0.5 mg/ml for rat microsomes and cytosol and 1.65 mg/ml for rat plasma) and profenofos (at final concentrations ranging from 1 to 100 μM, added from 100 times concentrated stock solutions in DMSO). Control incubations were performed in the absence of microsomes, cytosol or plasma. After 2 min pre-incubation, the reaction was initiated by adding the substrate and mixtures were incubated for 2 min in a 37 °C water bath. The total volume of the incubation mixtures was 200 μl. The reaction was terminated by the addition of 50 μl ice cold ACN and samples were kept on ice. The mixture was centrifuged at 14,000g for 20 min at 4 °C and the supernatant was analyzed using UPLC-UV.
All samples from incubations were analyzed using a Waters Acquity UPLC H class system that consisted of a quaternary solvent manager, a sample manager, and a photodiode array (PDA) detector, equipped with a Water Acquity UPLC® BEH C18 column (1.7 μm, 2.1 × 50 mm) and Waters Xbridge UPLC® BEH C18 pre-column (2.5 μM, 2.1 × 5 mm). The temperature of the column was kept at 40 °C and the auto sampler at 10 °C during the UPLC analysis. The mobile phases used for the analysis consisted of (A) 0.1% TFA in nanopure water and (B) 100% ACN. A gradient elution at a flow rate of 0.6 ml/min was applied for the analysis with the initial condition of 100% A:0% B (v/v), changing in a linear way to 0% A:100% B from 0 to 6 min, which was maintained for 30 s, and then changed back to the initial conditions in 30 s, which were maintained for 1 min. The injection volume for each sample was 3.5 μl.
Under these conditions, the retention times of profenofos and BCP were 4.76 and 3.37 min, respectively. The amounts of profenofos and BCP were quantified by integrating the peak areas at 237 nm using calibration curves that were prepared using commercially available standards.
Kinetic parameters including the apparent maximum velocity (Vmax) and the apparent Michaelis–Menten constant (Km) for BCP formation were obtained by fitting the data for the substrate concentration-dependent rate of conversion (expressed in nmol/min/mg protein) using GraphPad Prism 5, version 5.04 (San Diego, California, USA) to the standard Michaelis–Menten equation: V=Vmax∗S/(Km+S) in which the S represents the concentration of substrate, expressed in μM, V and Vmax the velocity and the maximum velocity of the reaction, respectively, expressed in nmol/min/mg protein, and Km the apparent Michaelis–Menten constant, expressed in μM. The kinetic parameter values for conversion of profenofos to BCP in the liver microsomes, liver cytosol and plasma were determined. To determine the catalytic efficiency, Vmax was divided by the Km.

brain cholinesterase = conditions: based on NOAEL in a dog study, brain cholinesterase inhibition; ref EFSA [2019]; cited from earlier work

CCCSP(=O)(OCC)Oc1ccc(Br)cc1Cl (stereo not shown) [profenofos, O-(4-bromo-2-chlorophenyl) O-ethyl S-propyl phosphorothioate]
Vmax (in vitro; rat liver cytosol): 0.95 nmol/min/mg cytosolic protein
Vmax (in vitro; rat liver microsomes): 8.9 nmol/min/mg microsomal protein
Vmax (in vitro; rat plasma): 0.68 nmol/min/mg plasma protein
Km (in vitro; rat liver cytosol): 0.34 µM
Km (in vitro; rat liver microsomes): 8.1 µM
Km (in vitro; rat plasma): 3.6 µM
ARfD (brain cholinesterase): 0.005 mg/kg bw

Reference: publication PMC8032624, “Prediction of dose-dependent in vivo acetylcholinesterase inhibition by profenofos in rats and humans using physiologically based kinetic (PBK) modeling-facilitated reverse dosimetry” (Archives of Toxicology, 2021)
